Data: paper PMC6309603 (Molecular diversity, 2018)
Like-named read-outs stand apart in the source and are kept apart here.

Assays:
[1] = target: AChE (Homo sapiens, UniProt P22303); assay: biochemical; details: for Selectivity for AChE: IC50 (BChE)/IC50 (AChE)
[2] = target: BChE (Homo sapiens, UniProt P06276); assay: biochemical
[3] = read-out: IC50 AChE, means±SD of three assays, 30 min, 30 °C, pH 8.0
[4] = read-out: IC50 BChE, means±SD of three assays, 30 min, 30 °C, pH 8.0

Sequence of BChE (P06276 29-602): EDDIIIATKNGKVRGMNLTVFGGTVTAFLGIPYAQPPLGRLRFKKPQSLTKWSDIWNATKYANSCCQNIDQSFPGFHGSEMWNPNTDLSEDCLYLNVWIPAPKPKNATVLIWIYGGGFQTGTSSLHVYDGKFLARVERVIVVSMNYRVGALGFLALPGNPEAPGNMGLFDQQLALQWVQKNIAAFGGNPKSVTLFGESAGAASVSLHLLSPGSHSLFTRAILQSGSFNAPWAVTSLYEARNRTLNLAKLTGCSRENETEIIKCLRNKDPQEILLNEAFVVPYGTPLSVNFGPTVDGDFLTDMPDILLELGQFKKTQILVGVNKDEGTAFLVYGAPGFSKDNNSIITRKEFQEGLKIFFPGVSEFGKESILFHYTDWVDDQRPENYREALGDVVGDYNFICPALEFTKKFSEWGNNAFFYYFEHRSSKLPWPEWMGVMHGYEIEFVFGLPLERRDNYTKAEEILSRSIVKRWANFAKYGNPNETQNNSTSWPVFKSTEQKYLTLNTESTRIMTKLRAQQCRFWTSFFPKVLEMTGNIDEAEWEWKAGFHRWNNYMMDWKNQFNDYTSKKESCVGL
Sequence of AChE (P22303 32-614): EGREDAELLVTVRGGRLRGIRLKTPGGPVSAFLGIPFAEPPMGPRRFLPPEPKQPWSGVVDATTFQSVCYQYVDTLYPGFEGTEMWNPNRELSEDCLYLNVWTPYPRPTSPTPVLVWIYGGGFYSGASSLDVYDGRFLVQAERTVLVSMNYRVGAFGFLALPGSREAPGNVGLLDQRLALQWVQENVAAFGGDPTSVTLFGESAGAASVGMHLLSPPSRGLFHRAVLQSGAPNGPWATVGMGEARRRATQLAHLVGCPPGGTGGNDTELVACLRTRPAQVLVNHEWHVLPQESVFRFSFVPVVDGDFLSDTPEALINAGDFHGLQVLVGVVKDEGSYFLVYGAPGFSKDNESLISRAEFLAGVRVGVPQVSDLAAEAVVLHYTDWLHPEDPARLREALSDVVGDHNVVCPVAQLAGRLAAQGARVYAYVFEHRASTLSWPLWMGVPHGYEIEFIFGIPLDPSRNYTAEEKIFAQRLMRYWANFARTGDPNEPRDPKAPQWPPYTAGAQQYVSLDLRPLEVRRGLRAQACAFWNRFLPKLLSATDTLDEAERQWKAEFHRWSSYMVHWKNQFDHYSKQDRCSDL

| SMILES | IC50 [1] | IC50 [2] | Selectivity for AChE [1] | inhibitory activity against AChE (in words) [1] | IC50 [1, 3] | inhibitory activity against BChE (in words) [2] | IC50 [2, 4] | selectivity over BChE (in words) [1] |
| --- | --- | --- | --- | --- | --- | --- | --- | --- |
| CC(C)=CCOc1cccc(/C=C/C(=O)c2cc3ccccc3oc2=O)c1 [Compound 6j, (E)-3-(3-(3-(3-methylbut-2-enyloxy)phenyl)-prop-2-enoyl)-2H-chromen-2-one] | > 500 µM | > 500 µM | – | – | – | – | – | – |
| O=C(/C=C/c1ccccc1OCC(=O)N1CCCC1)c1cc2ccccc2oc1=O [Compound 11e, (E)-3-(3-(2-(2-oxo-2-(pyrrolidin-1-yl)ethoxy)phenyl)acryloyl)-2H-chromen-2-one] | > 500 µM | > 500 µM | – | – | – | – | – | – |
| COc1cc(/C=C/C(=O)c2cc3ccccc3oc2=O)ccc1OCCN1CCCC1 [Compound 12l, (E)-3-(3-(3-methoxy-4-(2-(pyrrolidin-1-yl)ethoxy)phenyl)acryloyl)-2H-chromen-2-one] | 1.67 ± 0.04 µM | 0.46 ± 0.01 µM | 0.28 | – | – | – | – | – |
| CCN(CC)CCOc1cccc(/C=C/C(=O)c2cc3ccccc3oc2=O)c1 [Compound 6g, (E)-3-(3-(3-(2-(diethylamino)ethoxy)phenyl)acryloyl)-2H-chromen-2-one] | 51.3 ± 1.04 µM | 1.12 ± 0.11 µM | 0.02 | – | – | – | – | – |
| O=C(/C=C/c1ccc(OCCN2CCOCC2)cc1)c1cc2ccccc2oc1=O [Compound 5h, (E)-3-(3-(4-(2-morpholinoethoxy)phenyl)acryloyl)-2H-chromen-2-one] | > 500 µM | > 500 µM | – | almost has no inhibitory activity | > 500 µM | almost has no inhibitory activity | > 500 µM | – |
| COc1cc(/C=C/C(=O)c2cc3ccccc3oc2=O)ccc1OCCN(C)C [Compound 12k, (E)-3-(3-(4-(2-(dimethylamino)ethoxy)-3-methoxyphenyl)acryloyl)-2H-chromen-2-one] | 1.65 ± 0.09 µM | 8.48 ± 0.29 µM | 5.15 | – | – | – | – | – |
| O=C(/C=C/c1cccc(OCC(=O)N2CCCCC2)c1)c1cc2ccccc2oc1=O [Compound 10f, (E)-3-(3-(3-(2-oxo-2-(piperidin-1-yl)ethoxy)phenyl)acryloyl)-2H-chromen-2-one] | 152 ± 12.8 µM | 223 ± 11.5 µM | 1.46 | – | – | – | – | – |
| O=C(/C=C/c1ccccc1OCCN1CCCC1)c1cc2ccccc2oc1=O [Compound 7e, (E)-3-(3-(2-(2-(pyrrolidin-1-yl)ethoxy)phenyl)acryloyl)-2H-chromen-2-one] | 230 ± 14.8 µM | 3.76 ± 0.35 µM | 0.02 | poor inhibitory activity | – | – | – | poor selectivity |
| CC(C)CCOc1cccc(/C=C/C(=O)c2cc3ccccc3oc2=O)c1 [Compound 6i, (E)-3-(3-(3-(isopentyloxy)phenyl)acryloyl)-2H-chromen-2-one] | > 500 µM | > 500 µM | – | – | – | – | – | – |
| COc1cc(/C=C/C(=O)c2cc3ccccc3oc2=O)cc(OC)c1OCCN(C)C [Compound 13k, (E)-3-(3-(4-(2-(dimethylamino)ethoxy)-3,5-dimethoxyphenyl)acryloyl)-2-chromen-2-one] | – | – | 1.87 | – | 7.07 ± 0.46 µM | – | 13.2 ± 0.32 µM | – |
| O=C(/C=C/c1ccccc1OCCN1CCCCC1)c1cc2ccccc2oc1=O [Compound 7f, (E)-3-(3-(2-(2-(piperidin-1-yl)ethoxy)phenyl)acryloyl)-2H-chromen-2-one] | 29.9 ± 0.98 µM | 4.5 ± 0.22 µM | 0.15 | – | – | – | – | – |
| O=C(/C=C/c1cccc(OCC(=O)N2CCCC2)c1)c1cc2ccccc2oc1=O [Compound 10e, (E)-3-(3-(3-(2-oxo-2-(pyrrolidin-1-yl)ethoxy)phenyl)acryloyl)-2H-chromen-2-one] | > 500 µM | > 500 µM | – | – | – | – | – | – |
| O=C(/C=C/c1cccc(OCCN2CCOCC2)c1)c1cc2ccccc2oc1=O [Compound 6h, (E)-3-(3-(3-(2-morpholinoethoxy)phenyl)acryloyl)-2H-chromen-2-one] | > 500 µM | > 500 µM | – | – | – | – | – | – |
| CC(C)CCOc1ccccc1/C=C/C(=O)c1cc2ccccc2oc1=O [Compound 7i, (E)-3-(3-(2-(isopentyloxy)phenyl)acryloyl)-2H-chromen-2-one] | > 500 µM | > 500 µM | – | – | – | – | – | – |
| CC(C)CCOc1ccc(/C=C/C(=O)c2cc3ccccc3oc2=O)cc1 [Compound 5i, (E)-3-(3-(4-(isopentyloxy)phenyl)acryloyl)-2H-chromen-2-one] | > 500 µM | > 500 µM | – | – | – | – | – | – |
| CC(C)=CCOc1ccc(/C=C/C(=O)c2cc3ccccc3oc2=O)cc1 [Compound 5j, (E)-3-(3-(4-(3-methylbut-2-enyloxy)phenyl)-prop-2-enoyl)-2H-chromen-2-one] | > 500 µM | > 500 µM | – | – | – | – | – | – |
| CN(C)C(=O)COc1ccc(/C=C/C(=O)c2cc3ccccc3oc2=O)cc1 [Compound 9d, (E)-N,N-dimethyl-2-(4-(3-oxo-3-(2-oxo-2H-chromen-3-yl)prop-1-en-1-yl)phenoxy)acetamide] | 18.6 ± 1.06 µM | > 500 µM | >26.86 | – | – | – | – | – |

| SMILES | IC50 [1] | IC50 [2] | Selectivity for AChE [1] | inhibitory activity against AChE (in words) [1] | IC50 [1, 3] | inhibitory activity against BChE (in words) [2] | IC50 [2, 4] | selectivity over BChE (in words) [1] |
| --- | --- | --- | --- | --- | --- | --- | --- | --- |
| O=C(/C=C/c1ccc(OCC(=O)N2CCCC2)cc1)c1cc2ccccc2oc1=O [Compound 9e, (E)-3-(3-(4-(2-oxo-2-(pyrrolidin-1-yl)ethoxy)phenyl)acryloyl)-2H-chromen-2-one] | > 500 µM | > 500 µM | – | – | – | – | – | – |
| CN(C)C(=O)COc1cccc(/C=C/C(=O)c2cc3ccccc3oc2=O)c1 [Compound 10d, (E)-N,N-dimethyl-2-(3-(3-oxo-3-(2-oxo-2H-chromen-3-yl)prop-1-en-1-yl)phenoxy)acetamide] | > 500 µM | 44 ± 2.37 µM | <0.09 | – | – | – | – | – |
| COc1cc(/C=C/C(=O)c2cc3ccccc3oc2=O)ccc1OCCN1CCCCC1 [Compound 12m, (E)-3-(3-(3-methoxy-4-(2-(piperidin-1-yl)ethoxy)phenyl)acryloyl)-2H-chromen-2-one] | 0.37 ± 0.02 µM | 0.52 ± 0.01 µM | 1.41 | – | – | – | – | – |
| CN(C)CCOc1cccc(/C=C/C(=O)c2cc3ccccc3oc2=O)c1 [Compound 6d, (E)-3-(3-(3-(2-(dimethylamino)ethoxy)phenyl)acryloyl)-2H-chromen-2-one] | 0.92 ± 0.07 µM | 15.3 ± 1.16 µM | 16.64 | – | – | – | – | – |
| O=C(/C=C/c1cccc(OCCN2CCCCC2)c1)c1cc2ccccc2oc1=O [Compound 6f, (E)-3-(3-(3-(2-(piperidin-1-yl)ethoxy)phenyl)acryloyl)-2H-chromen-2-one] | 0.61 ± 0.02 µM | 4.01 ± 0.14 µM | 6.61 | – | – | – | – | – |
| CN(C)CCOc1ccc(/C=C/C(=O)c2cc3ccccc3oc2=O)cc1 [Compound 5d, (E)-3-(3-(4-(2-(dimethylamino)ethoxy)phenyl)acryloyl)-2H-chromen-2-one] | 0.37 ± 0.03 µM | > 500 µM | – | – | – | – | – | – |
| O=C(/C=C/c1ccccc1OCCN1CCOCC1)c1cc2ccccc2oc1=O [Compound 7h, (E)-3-(3-(2-(2-morpholinoethoxy)phenyl)acryloyl)-2H-chromen-2-one] | 261 ± 4.17 µM | 29 ± 1.23 µM | 0.11 | – | – | – | – | – |
| O=C(/C=C/c1ccccc1OCC(=O)N1CCCCC1)c1cc2ccccc2oc1=O [Compound 11f, (E)-3-(3-(2-(2-oxo-2-(piperidin-1-yl)ethoxy)phenyl)acryloyl)-2H-chromen-2-one] | > 500 µM | 106 ± 3.09 µM | – | – | – | – | – | – |
| COc1cc(/C=C/C(=O)c2cc3ccccc3oc2=O)cc(OC)c1OCCN1CCCCC1 [Compound 13m, (E)-3-(3-(3,5-dimethoxy-4-(2-(piperidin-1-yl)ethoxy)phenyl)acryloyl)-2H-chromen-2-one] | 9.58 ± 0.8 µM | 6.41 ± 0.36 µM | 0.67 | – | – | – | – | – |
| CN(C)CCOc1ccccc1/C=C/C(=O)c1cc2ccccc2oc1=O [Compound 7d, (E)-3-(3-(2-(2-(dimethylamino)ethoxy)phenyl)acryloyl)-2H-chromen-2-one] | 16.4 ± 0.22 µM | 15.2 ± 0.6 µM | 0.92 | – | – | – | – | – |
| CC(C)=CCOc1ccccc1/C=C/C(=O)c1cc2ccccc2oc1=O [Compound 7j, (E)-3-(3-(2-(3-methylbut-2-enyloxy)phenyl)-prop-2-enoyl)-2H-chromen-2-one] | > 500 µM | 100 ± 6.84 µM | <0.20 | – | – | – | – | – |
| CN(C)C(=O)COc1ccccc1/C=C/C(=O)c1cc2ccccc2oc1=O [Compound 11d, (E)-N,N-dimethyl-2-(2-(3-oxo-3-(2-oxo-2H-chromen-3-yl)prop-1-en-1-yl)phenoxy)acetamide] | > 500 µM | > 500 µM | – | – | – | – | – | – |
| O=C(/C=C/c1ccc(OCC(=O)N2CCCCC2)cc1)c1cc2ccccc2oc1=O [Compound 9f, (E)-3-(3-(4-(2-oxo-2-(piperidin-1-yl)ethoxy)phenyl)acryloyl)-2H-chromen-2-one] | > 500 µM | > 500 µM | – | – | – | – | – | – |
| O=C(/C=C/c1cccc(OCCN2CCCC2)c1)c1cc2ccccc2oc1=O [Compound 6e, (E)-3-(3-(3-(2-(pyrrolidin-1-yl)ethoxy)phenyl)acryloyl)-2H-chromen-2-one] | 3.25 ± 0.14 µM | 4.62 ± 0.16 µM | 1.42 | moderate inhibitory activity | – | – | – | low selectivity |
| CCN(CC)CCOc1ccc(/C=C/C(=O)c2cc3ccccc3oc2=O)cc1 [Compound 5g, (E)-3-(3-(4-(2-(diethylamino)ethoxy)phenyl)acryloyl)-2H-chromen-2-one] | 4.34 ± 0.29 µM | 6.21 ± 0.19 µM | 1.43 | – | – | – | – | – |
| COc1cc(/C=C/C(=O)c2cc3ccccc3oc2=O)cc(OC)c1OCCN1CCCC1 [Compound 13l, (E)-3-(3-(3,5-dimethoxy-4-(2-(pyrrolidin-1-yl)ethoxy)phenyl)acryloyl)-2H-chromen-2-one] | 29 ± 1.68 µM | 13.6 ± 0.53 µM | 0.47 | – | – | – | – | – |
| O=C(/C=C/c1ccc(OCCN2CCCCC2)cc1)c1cc2ccccc2oc1=O [Compound 5f, (E)-3-(3-(4-(2-(piperidin-1-yl)ethoxy)phenyl)acryloyl)-2H-chromen-2-one] | 0.69 ± 0.06 µM | 1.03 ± 0.05 µM | 1.49 | – | – | – | – | – |
